Reference: patent US20230098202A1 (priority 2020, published 2023)
Where two headings read alike, the source gives them in different places.

Key:
Puccinia triticina = assay: In planta validation in wheat infected with leaf rust, growth chamber; type: in vivo, Puccinia triticina on wheat; details: sprayed a day before inoculation
Puccinia sorghi [1] = assay: In planta validation: Puccinia sorghi infection of corn seedlings; type: in vivo, Puccinia sorghi on corn; details: controlled growth conditions, growth rooms, spraying
Experimental: • 1) Use: 120×80×80 mm pots, standard garden soil with fertilizer and corn seeds of a rust sensitive variety. • 2) Put pots in a tray and fill the pots with the soil to the top. • 3) Make a small grove for the seeds. • 4) Plant about 10 seeds of corn in each pot. • 5) Cover the seeds with additional soil. • 6) Add water into the tray—about 100 ml for each pot (fill the tray 3 times). • 7) Grow the corn for 8 days in growth room at 22° C. (until the second leaf is emerged). B. Preparation of Spore Suspension [from Corn Leaves] for Inoculation • 1) Insert 20 infected corn leaves with spores into a sterile 50-ml tube. • 2) Add 50 ml of cold 0.05% Tween® 20 solution. • 3) Insert the tube into a sealed, ice cold plastic box. • 4) Shake the box using a shaker for 15 min at 3000 RPM. • 5) Transfer the suspension (without the leaves) into a clean sterile 50-ml tube. • 6) Filter the spore suspension through 16 layers of gauze into another sterile 50-ml tube. • 7) Keep the tube with the spore suspension on ice. • 8) Wash and concentrate the spores on a 5-micron membrane filter. Wash 4 times with ice-cold sterile water and collect the spores in 0.05% Tween® 20 solution. • 9) For inoculation, dilute the spore suspension to get spore concentration of 8000 spores/ml using cold 0.05% Tween® 20 solution. […]

Phytophthora infestans [2] = type: cell-based; details: Phytophthora infestans on tomato leaf discs; activity grade x repeats/12 x100
Pseudomonas syringae = type: cell-based
Puccinia sorghi [3] = type: cell-based; details: 25 ppm
Pythium aphanidermatum = type: cell-based
Rhizoctonia solani = type: cell-based
Phytophthora infestans [4] = details: n = 10

| Structure (SMILES) | average efficacy in preventing and controlling Puccinia triticina (Puccinia triticina; 200 ppm) | average efficacy in preventing and controlling Puccinia triticina (Puccinia triticina; 400 ppm) | efficacy in preventing and controlling Puccinia sorghi in corn plants (in words) (Puccinia sorghi [1]) | Relative Activity value (%) (Phytophthora infestans [2]) | Relative Activity value (%) (Pseudomonas syringae) | Relative Activity value (%) (Puccinia sorghi [3]) | Relative Activity value (%) (Pythium aphanidermatum) | Relative Activity value (%) (Rhizoctonia solani) | Mean leaf surface area (0-3) covered by Phytophthora (Phytophthora infestans [4]; Exp. 487, 200 ppm in 0.1% base (pH = 6) + Silwet 0.005%, not treated 2.6) | Mean leaf surface area (0-3) covered by Phytophthora (Phytophthora infestans [4]; Exp. 487, 200 ppm in DMSO 6% + Silwet 0.005%, 0=clear, 3=high coverage, not treated 2.6) | Mean leaf surface area (0-3) covered by Phytophthora (Phytophthora infestans [4]; Exp. 492, 200 ppm in 0.1% base (pH = 6) + Silwet 0.005%, not treated 3) | Mean leaf surface area (0-3) covered by Phytophthora (Phytophthora infestans [4]; Exp. 492, 200 ppm in DMSO 6% + Silwet 0.005%, not treated 3) | Mean leaf surface area (0-3) covered by Phytophthora (Phytophthora infestans [4]; Exp. 500, 200 ppm in 0.1% base (pH = 6) without Silwet, not treated 3) |
| --- | --- | --- | --- | --- | --- | --- | --- | --- | --- | --- | --- | --- | --- |
| C[C@H]1[C@H](c2ccc(O)c(O)c2)c2cc(O)c(O)cc2C[C@H]1C [Compound 1, (5R,6R,7R)-5-(3,4-dihydroxyphenyl)-6,7-dimethyl-5,6,7,8-tetrahydronaphthalene-2,3-diol] | 95.17% | 97.06% | very good efficacy | 25% | 14% | 50% | 100% | 50% |  |  |  |  |  |
| CN[C@H]1CCC(c2ccc(Cl)c(Cl)c2)c2ccccc21.Cl (stereo in doubt) [Compound 3, (1S,4R)-4-(3,4-dichlorophenyl)-N-methyl-1,2,3,4-tetrahydronaphthalen-1-aminium chloride] |  |  |  |  |  |  |  |  | 0.7 | 0.1 | 0.3 | 0.4 | 0.8 |
| COc1cc2c(cc1O)[C@@H](c1ccc(O)c(O)c1)[C@H](C)[C@H](C)C2 [Compound 2, 4-((1R,2R,3R)-7-hydroxy-6-methoxy-2,3-dimethyl-1,2,3,4-tetrahydronaphthalen-1-yl)benzene-1,2-diol] |  |  |  |  | 14% | 50% | 20% | 14% |  |  |  |  |  |
